Source: PubChem BioAssay AID1919017 (Molecular Pharmacology Branch, DTP, NCI, 2023)

Tested on: SW1271 complex spheroids with HUVEC/MSC, growth, % test/control
Test: Anticancer human tumor SW1271 cell line growth inhibition [AhR];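 also: spheroids exposed to agents for 7 days before readout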
Conditions: for IC50: curve of first compound; for viability, T/C: stronger effect = lower value
Outline: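 Complex tumor spheroids co-cultured with HUVEC and human MSC stroma; AhR antagonists tested in combination with standard-of-care and investigational agents. Top concentration at or near clinical Cmax (else 10 microM), half-log dilutions; growth expressed as percent test/control.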

[1] = second compound 0.1 µM, first compound 0.0316 µM
[2] = second compound 0.1 µM, first compound 0.1 µM
[3] = second compound 0.1 µM, first compound 0.316 µM
[4] = second compound 0.1 µM, first compound 1 µM
[5] = second compound 0.1 µM, first compound 3.16 µM
[6] = second compound 0.1 µM, first compound 10 µM
[7] = second compound 0.316 µM, first compound 0.0316 µM
[8] = second compound 0.316 µM, first compound 0.1 µM
[9] = second compound 0.316 µM, first compound 0.316 µM
[10] = second compound 0.316 µM, first compound 1 µM
[11] = second compound 0.316 µM, first compound 3.16 µM
[12] = second compound 0.316 µM, first compound 10 µM
[13] = second compound 1 µM, first compound 0.0316 µM
[14] = second compound 1 µM, first compound 0.1 µM
[15] = second compound 1 µM, first compound 0.316 µM
[16] = second compound 1 µM, first compound 1 µM
[17] = second compound 1 µM, first compound 3.16 µM
[18] = second compound 1 µM, first compound 10 µM
[19] = second compound 3.16 µM, first compound 0.0316 µM
[20] = second compound 3.16 µM, first compound 0.1 µM
[21] = second compound 3.16 µM, first compound 0.316 µM
[22] = second compound 3.16 µM, first compound 1 µM
[23] = second compound 3.16 µM, first compound 3.16 µM
[24] = second compound 3.16 µM, first compound 10 µM
[25] = second compound 10 µM, first compound 0.0316 µM
[26] = second compound 10 µM, first compound 0.1 µM
[27] = second compound 10 µM, first compound 0.316 µM
[28] = second compound 10 µM, first compound 1 µM
[29] = second compound 10 µM, first compound 3.16 µM
[30] = second compound 10 µM, first compound 10 µM
[31] = second compound 0.1 µM, first compound 0.00949 µM
[32] = second compound 0.1 µM, first compound 0.03 µM
[33] = second compound 0.1 µM, first compound 0.0949 µM
[34] = second compound 0.1 µM, first compound 0.3 µM
[35] = second compound 0.316 µM, first compound 0.00949 µM
[36] = second compound 0.316 µM, first compound 0.03 µM
[37] = second compound 0.316 µM, first compound 0.0949 µM
[38] = second compound 0.316 µM, first compound 0.3 µM
[39] = second compound 1 µM, first compound 0.00949 µM
[40] = second compound 1 µM, first compound 0.03 µM
[41] = second compound 1 µM, first compound 0.0949 µM
[42] = second compound 1 µM, first compound 0.3 µM
[43] = second compound 3.16 µM, first compound 0.00949 µM
[44] = second compound 3.16 µM, first compound 0.03 µM
[45] = second compound 3.16 µM, first compound 0.0949 µM
[46] = second compound 3.16 µM, first compound 0.3 µM
[47] = second compound 10 µM, first compound 0.00949 µM
[48] = second compound 10 µM, first compound 0.03 µM
[49] = second compound 10 µM, first compound 0.0949 µM
[50] = second compound 10 µM, first compound 0.3 µM

CC1(C)CCC(CN2CCN(c3ccc(C(=O)NS(=O)(=O)c4ccc(NCC5CCOCC5)c([N+](=O)[O-])c4)c(Oc4cnc5[nH]ccc5c4)c3)CC2)=C(c2ccc(Cl)cc2)C1 + Cc1ccccc1N=Nc1ccc(NC(=O)c2ccnn2C)c(C)c1
IC50 (second compound 0.1 µM): > 10 µM
IC50 (second compound 0.316 µM): > 10 µM
IC50 (second compound 1 µM): > 10 µM
IC50 (second compound 3.16 µM): > 10 µM
IC50 (second compound 10 µM): > 10 µM
viability, T/C [1]: 96.4%
viability, T/C [2]: 99.5%
viability, T/C [3]: 100%
viability, T/C [4]: 79.4%
viability, T/C [5]: 88.2%
viability, T/C [6]: 94.1%
viability, T/C [7]: 110%
viability, T/C [8]: 78.6%
viability, T/C [9]: 102%
viability, T/C [10]: 99.3%
viability, T/C [11]: 85.4%
viability, T/C [12]: 90%
viability, T/C [13]: 110%
viability, T/C [14]: 88%
viability, T/C [15]: 113%
viability, T/C [16]: 92.9%
viability, T/C [17]: 95.1%
viability, T/C [18]: 128%
viability, T/C [19]: 91.9%
viability, T/C [20]: 105%
viability, T/C [21]: 87.5%
viability, T/C [22]: 76.1%
viability, T/C [23]: 78.3%
viability, T/C [24]: 112%
viability, T/C [25]: 102%
viability, T/C [26]: 99.3%
viability, T/C [27]: 98.4%
viability, T/C [28]: 86%
viability, T/C [29]: 83%
viability, T/C [30]: 93.3%

CC1COCCN1c1cc(C2(S(C)(=N)=O)CC2)nc(-c2ccnc3[nH]ccc23)n1 (stereo not given) + Cc1ccccc1N=Nc1ccc(NC(=O)c2ccnn2C)c(C)c1
IC50 (second compound 0.1 µM): > 10 µM
IC50 (second compound 0.316 µM): > 10 µM
IC50 (second compound 1 µM): > 10 µM
IC50 (second compound 3.16 µM): > 10 µM
IC50 (second compound 10 µM): > 10 µM
viability, T/C [1]: 87.6%
viability, T/C [2]: 105%
viability, T/C [3]: 90.8%
viability, T/C [4]: 119%
viability, T/C [5]: 89.4%
viability, T/C [6]: 52.5%
viability, T/C [7]: 100%
viability, T/C [8]: 95.2%
viability, T/C [9]: 96.9%
viability, T/C [10]: 106%
viability, T/C [11]: 67.6%
viability, T/C [12]: 58.8%
viability, T/C [13]: 96.8%
viability, T/C [14]: 111%
viability, T/C [15]: 106%
viability, T/C [16]: 89.6%
viability, T/C [17]: 90.4%
viability, T/C [18]: 56.7%
viability, T/C [19]: 97.5%
viability, T/C [20]: 112%
viability, T/C [21]: 104%
viability, T/C [22]: 96.7%
viability, T/C [23]: 70%
viability, T/C [24]: 61.1%
viability, T/C [25]: 102%
viability, T/C [26]: 91.8%
viability, T/C [27]: 104%
viability, T/C [28]: 95.4%
viability, T/C [29]: 68.1%
viability, T/C [30]: 54.9%

CCN(c1cc(-c2ccc(CN3CCOCC3)cc2)cc(C(=O)NCc2c(C)cc(C)[nH]c2=O)c1C)C1CCOCC1 + Cc1ccccc1N=Nc1ccc(NC(=O)c2ccnn2C)c(C)c1
IC50 (second compound 0.1 µM): > 3 µM
IC50 (second compound 0.316 µM): > 3 µM
IC50 (second compound 1 µM): > 3 µM
IC50 (second compound 3.16 µM): > 3 µM
IC50 (second compound 10 µM): > 3 µM
viability, T/C [31]: 115%
viability, T/C [32]: 111%
viability, T/C [33]: 117%
viability, T/C [34]: 107%
viability, T/C (second compound 0.1 µM, first compound 0.949 µM): 118%
viability, T/C (second compound 0.1 µM, first compound 3 µM): 110%
viability, T/C [35]: 115%
viability, T/C [36]: 118%
viability, T/C [37]: 106%
viability, T/C [38]: 123%
viability, T/C (second compound 0.316 µM, first compound 0.949 µM): 105%
viability, T/C (second compound 0.316 µM, first compound 3 µM): 107%
viability, T/C [39]: 117%
viability, T/C [40]: 110%
viability, T/C [41]: 122%
viability, T/C [42]: 122%
viability, T/C (second compound 1 µM, first compound 0.949 µM): 98%
viability, T/C (second compound 1 µM, first compound 3 µM): 88%
viability, T/C [43]: 99.3%
viability, T/C [44]: 114%
viability, T/C [45]: 102%
viability, T/C [46]: 148%
viability, T/C (second compound 3.16 µM, first compound 0.949 µM): 120%
viability, T/C (second compound 3.16 µM, first compound 3 µM): 108%
viability, T/C [47]: 96.5%
viability, T/C [48]: 103%
viability, T/C [49]: 91.7%
viability, T/C [50]: 111%
viability, T/C (second compound 10 µM, first compound 0.949 µM): 103%
viability, T/C (second compound 10 µM, first compound 3 µM): 118%

Nc1ncn(C2CC(O)C(CO)S2)c(=O)n1 (stereo not given) + Cc1ccccc1N=Nc1ccc(NC(=O)c2ccnn2C)c(C)c1
IC50 (second compound 0.1 µM): > 0.3 µM
IC50 (second compound 0.316 µM): > 0.3 µM
IC50 (second compound 1 µM): > 0.3 µM
IC50 (second compound 3.16 µM): > 0.3 µM
IC50 (second compound 10 µM): > 0.3 µM
viability, T/C (second compound 0.1 µM, first compound 0.000949 µM): 120%
viability, T/C (second compound 0.1 µM, first compound 0.003 µM): 102%
viability, T/C [31]: 87.8%
viability, T/C [32]: 102%
viability, T/C [33]: 95.4%
viability, T/C [34]: 79.5%
viability, T/C (second compound 0.316 µM, first compound 0.000949 µM): 101%
viability, T/C (second compound 0.316 µM, first compound 0.003 µM): 94.4%
viability, T/C [35]: 83.6%
viability, T/C [36]: 89.2%
viability, T/C [37]: 89.9%
viability, T/C [38]: 78.6%
viability, T/C (second compound 1 µM, first compound 0.000949 µM): 87.9%
viability, T/C (second compound 1 µM, first compound 0.003 µM): 96%
viability, T/C [39]: 109%
viability, T/C [40]: 94.6%
viability, T/C [41]: 76.9%
viability, T/C [42]: 99.9%
viability, T/C (second compound 3.16 µM, first compound 0.000949 µM): 81.2%
viability, T/C (second compound 3.16 µM, first compound 0.003 µM): 115%
viability, T/C [43]: 116%
viability, T/C [44]: 88.7%
viability, T/C [45]: 85.4%
viability, T/C [46]: 105%
viability, T/C (second compound 10 µM, first compound 0.000949 µM): 103%
viability, T/C (second compound 10 µM, first compound 0.003 µM): 95.3%
viability, T/C [47]: 86%
viability, T/C [48]: 92.7%
viability, T/C [49]: 85%
viability, T/C [50]: 77.2%
